Reference: publication PMC6015499 (Journal of medicinal chemistry, 2017)

Test: PAMPA permeability
Assay type: in vitro ADME

Q: For Cc1cccc(C)c1-c1nc(CN2CCC(C(=O)NCCCN3C[C@H](C)C[C@H](C)C3)CC2)c(C)o1 [7w, N-(3-(cis-3,5-Dimethylpiperidin-1-yl)propyl)-1-((2-(2,6-dimethylphenyl)-5-methyloxazol-4-yl)methyl)piperidine-4-carboxamide], which PAMPA permeability is on record?
A: The PAMPA permeability was 253.9 1×10^−6 cm/s.

Q: Which PAMPA permeability does the source give for COc1cccc(Cl)c1-c1nc(CN2CCC(C(=O)NCCCN3C[C@H](C)C[C@H](C)C3)CC2)c(C)o1 [7uu, N-(3-(cis-3,5-Dimethylpiperidin-1-yl)propyl)-1-((2-(2-chloro-6-methoxyphenyl)-5-methyloxazol-4-yl)methyl)piperidine-4-carboxamide] here?
A: The PAMPA permeability was 51.0 1×10^−6 cm/s.

Q: Which PAMPA permeability does the source give for COc1ccc(-c2nc(CN3CCC(C(=O)NCCCN4C[C@H](C)C[C@H](C)C4)CC3)c(C)o2)cc1OC [7yy] here?
A: Its PAMPA permeability is 81.9 1×10^−6 cm/s.

Q: With Cc1cccc(Cl)c1-c1nc(CN2CCC(C(=O)NCCCN3CCCC(C)C3)CC2)c(C)o1 (racemic) [7oo, (±)-1-((2-(2-Chloro-6-methylphenyl)-5-methyloxazol-4-yl)-methyl)-N-(3-(3-methylpiperidin-1-yl)propyl)piperidine-4-carboxamide] as the compound, how does the PAMPA permeability read?
A: Its PAMPA permeability is 650.6 1×10^−6 cm/s.

Q: With Cc1ccccc1-c1nc(CN2CCC(C(=O)NCCN3C[C@H](C)C[C@H](C)C3)CC2)c(C)o1 [7n, N-(3-(cis-3,5-Dimethylpiperidin-1-yl)ethyl)-1-((5-methyl-2-(otolyl)oxazol-4-yl)methyl)piperidine-4-carboxamide] as the compound, how does the PAMPA permeability read?
A: Its PAMPA permeability is 712.4 1×10^−6 cm/s.

Q: For Cc1ccccc1-c1nc(CN2CCC(C(=O)NCCCN3CC(C)(C)CC(C)(C)C3)CC2)c(C)o1 [7d, 1-((5-Methyl-2-(o-tolyl)oxazol-4-yl)methyl)-N-(3-(cis-3,3,5,5-tetramethylpiperidin-1-yl)propyl)piperidine-4-carboxamide], which PAMPA permeability is on record?
A: Its PAMPA permeability is >1397 1×10^−6 cm/s.

Q: For CCN(CC)CCCCNC(=O)C1CCN(Cc2nc(-c3ccc(OC)c(OC)c3)oc2C)CC1 [7zz, N-(4-(Diethylamino)butyl)-1-((2-(3,4-dimethoxyphenyl)-5-methyloxazol-4-yl)methyl)piperidine-4-carboxamide], which PAMPA permeability is on record?
A: The PAMPA permeability was 10.4 1×10^−6 cm/s.

Q: For Cc1oc(-c2c(F)cccc2F)nc1CN1CCC(C(=O)NCCCN2C[C@H](C)C[C@H](C)C2)CC1 [7jj, N-(3-(cis-3,5-Dimethylpiperidin-1-yl)propyl)-1-((2-(2,6-difluorophenyl)-5-methyloxazol-4-yl)methyl)piperidine-4-carboxamide], which PAMPA permeability is on record?
A: Its PAMPA permeability is 82.4 1×10^−6 cm/s.

Q: Which PAMPA permeability does the source give for Cc1ccccc1-c1nc(CN2CCC(C(=O)NCCCN3C[C@H](C)C[C@@H](C)C3)CC2)c(C)o1 (racemic) [7b, (±)-N-(3-(trans-3,5-Dimethylpiperidin-1-yl)propyl)-1-((5-methyl-2-(o-tolyl)oxazol-4-yl)methyl)piperidine-4-carboxamide] here?
A: The PAMPA permeability was 553.7 1×10^−6 cm/s.

Q: With CCCN(CCC)CCNC(=O)C1CCN(Cc2nc(-c3ccccc3C)oc2C)CC1 [7p, N-(2-(Dipropylamino)ethyl)-1-((5-methyl-2-(o-tolyl)oxazol-4-yl)-methyl)piperidine-4-carboxamide] as the compound, how does the PAMPA permeability read?
A: The PAMPA permeability was 913.1 1×10^−6 cm/s.

Q: For Cc1ccccc1-c1nc(CN2CCC(C(=O)N3CCN(CCN(C)C)CC3)CC2)c(C)o1 [7s, (4-(2-(Dimethylamino)ethyl)piperazin-1-yl)(1-((5-methyl-2-(otolyl)oxazol-4-yl)methyl)piperidin-4-yl)methanone], which PAMPA permeability is on record?
A: Its PAMPA permeability is 14 1×10^−6 cm/s.

Q: For Cc1cccc(Cl)c1-c1nc(CN2CCC(C(=O)NCCCN3C[C@H](C)C[C@H](C)C3)CC2)c(C)o1 [7nn, N-(3-(cis-3,5-Dimethylpiperidin-1-yl)propyl)-1-((2-(2-chloro-6-methylphenyl)-5-methyloxazol-4-yl)methyl)piperidine-4-carboxamide], which PAMPA permeability is on record?
A: Its PAMPA permeability is 196.3 1×10^−6 cm/s.

Q: Which PAMPA permeability does the source give for Cc1ccc(-c2nc(CN3CCC(C(=O)NCCCN4C[C@H](C)C[C@H](C)C4)CC3)c(C)o2)cc1C [7x, N-(3-(cis-3,5-Dimethylpiperidin-1-yl)propyl)-1-((2-(3,4-dimethylphenyl)-5-methyloxazol-4-yl)methyl)piperidine-4-carboxamide] here?
A: Its PAMPA permeability is 219.4 1×10^−6 cm/s.

Q: With Cc1oc(-c2ccccc2Cl)nc1CN1CCC(C(=O)NCCCN2C[C@H](C)C[C@H](C)C2)CC1 [7dd, N-(3-(cis-3,5-Dimethylpiperidin-1-yl)propyl)-1-((2-(2-chlorophenyl)-5-methyloxazol-4-yl)methyl)piperidine-4-carboxamide] as the compound, how does the PAMPA permeability read?
A: The PAMPA permeability was 352.4 1×10^−6 cm/s.

Q: For Cc1cc(-c2nc(CN3CCC(C(=O)NCCCN4C[C@H](C)C[C@H](C)C4)CC3)co2)ccc1F [18a, N-(3-(cis-3,5-Dimethylpiperidin-1-yl)propyl)-1-((2-(4-fluoro-3-methylphenyl)oxazol-4-yl)methyl)piperidine-4-carboxamide], which PAMPA permeability is on record?
A: Its PAMPA permeability is 215.4 1×10^−6 cm/s.

Q: For Cc1ccccc1-c1nc(CN2CCC(C(=O)NCCCN3CCC(C(C)C)CC3)CC2)c(C)o1 [7e, N-(3-(4-Isopropylpiperidin-1-yl)propyl)-1-((5-methyl-2-(o-tolyl)-oxazol-4-yl)methyl)piperidine-4-carboxamide], which PAMPA permeability is on record?
A: The PAMPA permeability was 395.6 1×10^−6 cm/s.

Q: For Cc1ccccc1-c1nc(CN2CCC(C(=O)NCCCN3CC4CCCC(C4)C3)CC2)c(C)o1 [7m, N-(3-(3-Azabicyclo[3.3.1]nonan-3-yl)propyl)-1-((5-methyl-2-(otolyl)oxazol-4-yl)methyl)piperidine-4-carboxamide], which PAMPA permeability is on record?
A: Its PAMPA permeability is 330.9 1×10^−6 cm/s.

Q: For Cc1cc(-c2nc(CN3CCC(C(=O)NCCCN4CCC(C(C)C)CC4)CC3)co2)ccc1F [18b, 1-((2-(4-Fluoro-3-methylphenyl)oxazol-4-yl)methyl)-N-(3-(4-isopropylpiperidin-1-yl)propyl)piperidine-4-carboxamide], which PAMPA permeability is on record?
A: The PAMPA permeability was 276.4 1×10^−6 cm/s.

Q: Which PAMPA permeability does the source give for Cc1ccccc1-c1nc(CN2CCC(C(=O)NCCCN3CCC(C)CC3)CC2)c(C)o1 [7g, N-(3-(4-Methylpiperidin-1-yl)propyl)-1-((5-methyl-2-(o-tolyl)-oxazol-4-yl)methyl)piperidine-4-carboxamide] here?
A: Its PAMPA permeability is 424.7 1×10^−6 cm/s.

Q: Which PAMPA permeability does the source give for Cc1ccc(-c2nc(CN3CCC(C(=O)NCCCN4C[C@H](C)C[C@H](C)C4)CC3)c(C)o2)c(C)c1 [7y, N-(3-(cis-3,5-Dimethylpiperidin-1-yl)propyl)-1-((2-(2,4-dimethylphenyl)-5-methyloxazol-4-yl)methyl)piperidine-4-carboxamide] here?
A: The PAMPA permeability was 353.1 1×10^−6 cm/s.

Q: With Cc1ccccc1-c1nc(CN2CCC(C(=O)NCCCN3CCC(C)(C)CC3)CC2)c(C)o1 [7f, N-(3-(4,4-Dimethylpiperidin-1-yl)propyl)-1-((5-methyl-2-(o-tolyl)-oxazol-4-yl)methyl)piperidine-4-carboxamide] as the compound, how does the PAMPA permeability read?
A: The PAMPA permeability was 241.4 1×10^−6 cm/s.

Q: For Cc1ccccc1-c1nc(CN2CCC(C(=O)NCCCN3CCCC(CC(C)C)C3)CC2)c(C)o1 (racemic) [7l, (±)-N-(3-(3-Isobutylpiperidin-1-yl)propyl)-1-((5-methyl-2-(otolyl)oxazol-4-yl)methyl)piperidine-4-carboxamide], which PAMPA permeability is on record?
A: The PAMPA permeability was 3 1×10^−6 cm/s.

Q: For CCc1ccccc1-c1nc(CN2CCC(C(=O)NCCCN3C[C@H](C)C[C@H](C)C3)CC2)c(C)o1 [7v, N-(3-(cis-3,5-Dimethylpiperidin-1-yl)propyl)-1-((2-(2-ethylphenyl)-5-methyloxazol-4-yl)methyl)piperidine-4-carboxamide], which PAMPA permeability is on record?
A: Its PAMPA permeability is 106.1 1×10^−6 cm/s.

Q: Which PAMPA permeability does the source give for Cc1cc(C)cc(-c2nc(CN3CCC(C(=O)NCCCN4C[C@H](C)C[C@H](C)C4)CC3)c(C)o2)c1 [7z, N-(3-(cis-3,5-Dimethylpiperidin-1-yl)propyl)-1-((2-(3,5-dimethylphenyl)-5-methyloxazol-4-yl)methyl)piperidine-4-carboxamide] here?
A: The PAMPA permeability was 864 1×10^−6 cm/s.

Q: For Cc1oc(-c2cccc(Cl)c2)nc1CN1CCC(C(=O)NCCCN2C[C@H](C)C[C@H](C)C2)CC1 [7ee, N-(3-(cis-3,5-Dimethylpiperidin-1-yl)propyl)-1-((2-(3-chlorophenyl)-5-methyloxazol-4-yl)methyl)piperidine-4-carboxamide], which PAMPA permeability is on record?
A: Its PAMPA permeability is 615.1 1×10^−6 cm/s.

Q: For Cc1ccccc1-c1nc(CN2CCC(C(=O)NCCCN3CCCCC3)CC2)c(C)o1 [7h, N-(3-(Piperidin-1-yl)propyl)-1-((5-methyl-2-(o-tolyl)oxazol-4-yl)-methyl)piperidine-4-carboxamide], which PAMPA permeability is on record?
A: Its PAMPA permeability is 34.5 1×10^−6 cm/s.

Q: Which PAMPA permeability does the source give for Cc1ccc(-c2nc(CN3CCC(C(=O)NCCCN4C[C@H](C)C[C@H](C)C4)CC3)c(C)o2)cc1 [7u, N-(3-(cis-3,5-Dimethylpiperidin-1-yl)propyl)-1-((5-methyl-2-(ptolyl)oxazol-4-yl)methyl)piperidine-4-carboxamide] here?
A: Its PAMPA permeability is 274.3 1×10^−6 cm/s.

Q: With CC[C@@H]1C[C@H](CC)CN(CCCNC(=O)C2CCN(Cc3nc(-c4c(F)cccc4F)oc3C)CC2)C1 [7kk, N-(3-(cis-3,5-Diethylpiperidin-1-yl)propyl)-1-((2-(2,6-difluorophenyl)-5-methyloxazol-4-yl)methyl)piperidine-4-carboxamide] as the compound, how does the PAMPA permeability read?
A: Its PAMPA permeability is 129.9 1×10^−6 cm/s.

Q: For Cc1oc(-c2c(Br)cccc2Br)nc1CN1CCC(C(=O)NCCCN2C[C@H](C)C[C@H](C)C2)CC1 [7ll, N-(3-(cis-3,5-Dimethylpiperidin-1-yl)propyl)-1-((2-(2,6-dibromophenyl)-5-methyloxazol-4-yl)methyl)piperidine-4-carboxamide], which PAMPA permeability is on record?
A: The PAMPA permeability was <1.0 1×10^−6 cm/s.

Q: For COc1cccc(Br)c1-c1nc(CN2CCC(C(=O)NCCCN3C[C@H](C)C[C@H](C)C3)CC2)c(C)o1 [7tt, N-(3-(cis-3,5-Dimethylpiperidin-1-yl)propyl)-1-((2-(2-bromo-6-methoxyphenyl)-5-methyloxazol-4-yl)methyl)piperidine-4-carboxamide], which PAMPA permeability is on record?
A: The PAMPA permeability was 245.3 1×10^−6 cm/s.

Q: Which PAMPA permeability does the source give for Cc1oc(-c2c(C)c(C)c(C)c(C)c2C)nc1CN1CCC(C(=O)NCCCN2C[C@H](C)C[C@H](C)C2)CC1 [7cc, N-(3-(cis-3,5-Dimethylpiperidin-1-yl)propyl)-1-((2-(2,3,4,5,6-pentamethylphenyl)-5-methyloxazol-4-yl)methyl)piperidine-4-carboxamide] here?
A: Its PAMPA permeability is 455.2 1×10^−6 cm/s.

Q: For Cc1cccc(-c2nc(CN3CCC(C(=O)NCCCN4C[C@H](C)C[C@H](C)C4)CC3)c(C)o2)c1 [7t, N-(3-(cis-3,5-Dimethylpiperidin-1-yl)propyl)-1-((5-methyl-2-(mtolyl)oxazol-4-yl)methyl)piperidine-4-carboxamide], which PAMPA permeability is on record?
A: The PAMPA permeability was 279.1 1×10^−6 cm/s.
